This passage reports IC50 results from US20250361230A1, “LATS Inhibitors and Uses Thereof” (The USA, as Represented by the Secretary, Dept. of Heath …, priority 2022, published 2025).

Each structure is given as a SMILES string.

Type in all cases: biochemical
One assay has as its target T1, LATS2 (Homo sapiens, UniProt Q9NRM7).
T1 sequence (Q9NRM7 1-1088): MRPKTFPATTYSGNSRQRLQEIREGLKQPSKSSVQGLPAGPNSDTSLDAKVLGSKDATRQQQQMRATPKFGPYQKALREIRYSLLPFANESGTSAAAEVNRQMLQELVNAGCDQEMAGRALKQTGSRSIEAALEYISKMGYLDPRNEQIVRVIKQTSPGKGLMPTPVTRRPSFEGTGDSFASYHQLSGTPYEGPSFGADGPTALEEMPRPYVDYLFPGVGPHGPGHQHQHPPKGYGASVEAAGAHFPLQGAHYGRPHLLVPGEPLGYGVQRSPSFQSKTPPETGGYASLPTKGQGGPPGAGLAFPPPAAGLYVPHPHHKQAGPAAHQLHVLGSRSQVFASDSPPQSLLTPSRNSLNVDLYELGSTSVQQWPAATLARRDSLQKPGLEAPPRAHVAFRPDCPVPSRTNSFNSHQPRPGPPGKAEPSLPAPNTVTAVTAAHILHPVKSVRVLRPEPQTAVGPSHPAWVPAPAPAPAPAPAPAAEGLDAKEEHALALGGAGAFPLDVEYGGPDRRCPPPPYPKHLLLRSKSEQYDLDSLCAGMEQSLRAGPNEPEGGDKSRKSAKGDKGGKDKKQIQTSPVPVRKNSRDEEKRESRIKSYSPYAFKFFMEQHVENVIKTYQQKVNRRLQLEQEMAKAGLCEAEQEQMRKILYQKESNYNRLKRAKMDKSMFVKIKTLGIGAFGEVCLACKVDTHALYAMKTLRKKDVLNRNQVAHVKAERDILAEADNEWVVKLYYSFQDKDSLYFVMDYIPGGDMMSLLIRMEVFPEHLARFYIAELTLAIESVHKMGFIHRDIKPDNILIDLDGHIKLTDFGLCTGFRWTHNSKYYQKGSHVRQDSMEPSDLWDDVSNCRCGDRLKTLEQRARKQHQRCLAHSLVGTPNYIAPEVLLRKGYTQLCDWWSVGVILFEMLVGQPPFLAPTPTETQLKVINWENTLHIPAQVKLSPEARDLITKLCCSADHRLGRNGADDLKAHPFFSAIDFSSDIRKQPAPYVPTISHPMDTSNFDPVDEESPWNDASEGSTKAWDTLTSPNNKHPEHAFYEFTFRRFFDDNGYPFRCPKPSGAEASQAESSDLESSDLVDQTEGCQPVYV
The assay can be described thus: RBC HotSpot kinase assay (33P-ATP, P81 filter-binding), LATS2. As to conditions: Table 28, biochemical kinase assay; read-out: LATS2 IC50. The method, then: (§1) Biochemical kinase inhibitory data was obtained for various exemplary compounds prepared according to the above.
(§2) The reagents used are as follows: Base Reaction buffer; 20 mM Hepes (pH 7.5), 10 mM MgCl2, 1 mM EGTA, 0.01% Brij35, 0.02 mg/ml BSA, 0.1 mM Na3VO4, 2 mM DTT, […]. Required cofactors were added individually to each kinase reaction.
(§3) The reaction procedure was as follows: • 1) Substrates were prepared in freshly prepared Reaction Buffer. • 2) Any required cofactors were delivered to the substrate solution above. • 3) Kinase was delivered into the substrate solution and gently mixed. • 4) Compounds were delivered in 100% DMSO into the kinase reaction mixture by Acoustic technology (Echo550; nanoliter range), followed by incubation for 20 min at room temp. • 5) ^33P-ATP was delivered into the reaction mixture to initiate the reaction. • 6) The mixture was incubated for 2 hours at room temperature. • 7) Kinase activity was detected by P81 filter-binding method.
(§4) Using the above functional assay, the inhibitory activity of the compounds for LATS1/2 versus AKT was characterized. The assays were typically run in a 10-point curve, in singlet, to produce a titration curve from which an IC50 value was obtained.
(§5) The reagents used are as follows: Base Reaction buffer; 20 mM Hepes (pH 7.5), 10 mM MgCl2, 1 mM EGTA, 0.01% Brij35, 0.02 mg/ml BSA, 0.1 mM Na3VO4, 2 mM DTT, 1% DMSO. Required cofactors were added individually to each kinase reaction.
(§6) Biochemical kinase inhibitory data was obtained for various exemplary compounds prepared according to the above in accordance with the protocols described in Examples 4 and 8. All biological activities are IC50, in nM.

The target in a further assay is T2, LATS1 (Homo sapiens, UniProt O95835).
T2 sequence (O95835 1-1130): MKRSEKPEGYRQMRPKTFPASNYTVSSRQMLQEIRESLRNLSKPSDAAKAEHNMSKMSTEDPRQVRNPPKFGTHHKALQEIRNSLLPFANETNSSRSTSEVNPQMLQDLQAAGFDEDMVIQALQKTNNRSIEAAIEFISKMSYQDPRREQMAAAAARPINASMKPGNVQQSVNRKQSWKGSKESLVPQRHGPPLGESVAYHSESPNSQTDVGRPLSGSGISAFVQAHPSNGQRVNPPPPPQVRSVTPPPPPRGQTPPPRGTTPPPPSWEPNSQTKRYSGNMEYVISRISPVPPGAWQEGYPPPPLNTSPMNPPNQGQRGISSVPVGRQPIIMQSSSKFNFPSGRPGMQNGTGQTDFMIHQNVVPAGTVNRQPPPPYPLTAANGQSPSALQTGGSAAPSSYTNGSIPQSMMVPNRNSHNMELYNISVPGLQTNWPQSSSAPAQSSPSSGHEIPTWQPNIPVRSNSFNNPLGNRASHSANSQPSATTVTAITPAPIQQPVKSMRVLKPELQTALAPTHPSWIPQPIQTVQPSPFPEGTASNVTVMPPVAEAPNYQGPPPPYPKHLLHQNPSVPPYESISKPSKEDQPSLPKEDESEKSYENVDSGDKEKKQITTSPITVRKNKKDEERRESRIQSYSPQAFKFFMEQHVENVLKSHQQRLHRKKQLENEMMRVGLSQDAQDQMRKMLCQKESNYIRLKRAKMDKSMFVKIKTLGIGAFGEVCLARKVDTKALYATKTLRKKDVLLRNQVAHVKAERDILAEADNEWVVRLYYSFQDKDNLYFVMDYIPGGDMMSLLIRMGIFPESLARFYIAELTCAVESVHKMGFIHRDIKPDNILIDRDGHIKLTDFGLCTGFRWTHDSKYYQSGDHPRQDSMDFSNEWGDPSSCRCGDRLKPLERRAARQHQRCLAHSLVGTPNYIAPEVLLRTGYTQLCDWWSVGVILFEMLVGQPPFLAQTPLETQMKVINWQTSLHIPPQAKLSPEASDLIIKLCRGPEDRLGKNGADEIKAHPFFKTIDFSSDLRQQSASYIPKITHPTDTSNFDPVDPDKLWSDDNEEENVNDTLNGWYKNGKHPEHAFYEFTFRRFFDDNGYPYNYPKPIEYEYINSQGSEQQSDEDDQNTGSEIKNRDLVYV
The assay can be described thus: RBC HotSpot kinase assay (33P-ATP, P81 filter-binding), LATS1. The conditions noted are these: Table 28, biochemical kinase assay; read-out: LATS1 IC50. The method, then:
as §1, §2, §3, §4, §5, §6

In another assay the target is AKT (Homo sapiens, UniProt P31749). The assay is described as follows: RBC HotSpot kinase assay (33P-ATP, P81 filter-binding), AKT. As to conditions: Table 28, biochemical kinase assay; read-out: AKT IC50. The method, then:
as §1, §2, §3, §4, §5, §6

Sequence of AKT (P31749 whole entry): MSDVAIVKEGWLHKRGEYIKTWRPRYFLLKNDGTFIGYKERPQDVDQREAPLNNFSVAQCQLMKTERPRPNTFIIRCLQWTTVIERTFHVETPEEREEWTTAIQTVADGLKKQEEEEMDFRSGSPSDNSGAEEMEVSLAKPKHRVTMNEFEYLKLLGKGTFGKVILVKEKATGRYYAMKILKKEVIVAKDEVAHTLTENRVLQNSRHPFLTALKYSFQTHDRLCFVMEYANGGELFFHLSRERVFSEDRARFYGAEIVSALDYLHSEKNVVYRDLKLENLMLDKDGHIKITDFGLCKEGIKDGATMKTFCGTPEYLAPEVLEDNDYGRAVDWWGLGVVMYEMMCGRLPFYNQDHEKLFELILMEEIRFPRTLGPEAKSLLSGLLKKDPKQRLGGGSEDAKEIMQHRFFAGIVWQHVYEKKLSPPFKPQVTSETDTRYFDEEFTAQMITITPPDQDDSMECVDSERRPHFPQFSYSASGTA

On to `Cc1nc(-c2ccnc3[nH]cc(F)c23)ccc1[C@@]1(O)[C@H](C)CN(C2CCC2)C[C@@H]1C` [Compound 50, (3R,4s,5S)-1-cyclobutyl-4-(6-(3-fluoro-1H-pyrrolo[2,3-b]pyridin-4-yl)-2-methylpyridin-3-yl)-3,5-dimethylpiperidin-4-ol], for which the IC50 on LATS2 is 24.7 nM; on LATS1, 6.1 nM; on AKT, 906 nM.

For `Cc1cc(-c2ccnc3[nH]cc(F)c23)ncc1[C@@]1(O)[C@H](C)CN(Cc2ccncc2)C[C@@H]1C` [Compound 52, (3R,4s,5S)-4-(6-(3-fluoro-1H-pyrrolo[2,3-b]pyridin-4-yl)-4-methylpyridin-3-yl)-3,5-dimethyl-1-(pyridin-4-ylmethyl)piperidin-4-ol], the half-maximal inhibitory concentration (IC50) at LATS2 was 5080 nM; on LATS1 it was 2210 nM; on AKT, more than 10000 nM.

As for `C[C@@H]1CN(C(CF)CF)C[C@H](C)C1(O)c1ccc(-c2ccnc3[nH]cc(F)c23)cc1Cl` (stereo partly drawn) [Compound 53, (3S,5R)-4-(2-chloro-4-(3-fluoro-1H-pyrrolo[2,3-b]pyridin-4-yl)phenyl)-1-(1,3-difluoropropan-2-yl)-3,5-dimethylpiperidin-4-ol], the 50% inhibitory concentration (IC50) at LATS2 is 3.6 nM; at LATS1, 3 nM; at AKT it was 374 nM.

As to `Cc1cc(-c2ccnc3[nH]cc(F)c23)ncc1C1(O)[C@H](C)CN(C2CCS(=O)(=O)CC2)C[C@@H]1C` (stereo partly drawn) [Compound 56, 4-((3R,5S)-4-(6-(3-fluoro-1H-pyrrolo[2,3-b]pyridin-4-yl)-4-methylpyridin-3-yl)-4-hydroxy-3,5-dimethylpiperidin-1-yl)tetrahydro-2H-thiopyran 1,1-dioxide], the IC50 on LATS2 was 4250 nM; on LATS1 it was 2080 nM; at AKT, more than 10000 nM.

`C[C@@H]1CN(C(=O)[C@H]2CCCN2)C[C@H](C)[C@@]1(O)c1c(F)cc(-c2ccnc3[nH]cc(F)c23)cc1F` [Compound 59, 4-(4-((3S,4R,5R)-1-(L-prolyl)-4-hydroxy-3,5-dimethylpiperidin-4-yl)-3,5-difluorophenyl)-3-fluoro-1H-pyrrolo[2,3-b]pyridine]: the concentration for half-maximal inhibition (IC50) at LATS2 worked out at 10.3 nM; at LATS1 it was 21.6 nM; on AKT it was 1470 nM.

With `Cc1cc(-c2ccnc3[nH]cc(F)c23)cc(F)c1[C@@]1(O)[C@H](C)CN(C(=O)C2(N)CC(F)(F)C2)C[C@@H]1C` [Compound 62, (1-amino-3,3-difluorocyclobutyl) ((3S,4s,5R)-4-(2-fluoro-4-(3-fluoro-1H-pyrrolo[2,3-b]pyridin-4-yl)-6-methylphenyl)-4-hydroxy-3,5-dimethylpiperidin-1-yl)methanone], the IC50 was found to be 4.3 nM on LATS2, 19.7 nM at LATS1 and 5880 nM on AKT.

For `Cc1cc(-c2ccnc3[nH]cc(F)c23)cc(F)c1[C@@]1(O)[C@H](C)CN(C(=O)[C@@H]2CCCN2)C[C@@H]1C` [Compound 63, 4-(4-((3S,4R,5R)-1-(L-prolyl)-4-hydroxy-3,5-dimethylpiperidin-4-yl)-3-fluoro-5-methylphenyl)-3-fluoro-1H-pyrrolo[2,3-b]pyridine], the IC50 at LATS2 was 3.4 nM; on LATS1, 8.5 nM; at AKT it was 677 nM.

In the case of `Cc1cc(-c2ccnc3[nH]cc(F)c23)cc(F)c1[C@@]1(O)[C@H](C)CN(C(=O)[C@@H]2CC(F)(F)CN2)C[C@@H]1C` [Compound 64, ((S)-4,4-difluoropyrrolidin-2-yl)((3S,4R,5R)-4-(2-fluoro-4-(3-fluoro-1H-pyrrolo[2,3-b]pyridin-4-yl)-6-methylphenyl)-4-hydroxy-3,5-dimethylpiperidin-1-yl)methanone], the values for the IC50 at LATS2, at LATS1 and at AKT were 3.6 nM, 6.7 nM and 3140 nM, respectively.

As for `Cc1cc(-c2ccnc3[nH]cc(F)c23)cc(F)c1[C@@]1(O)[C@H](C)CN(C(=O)[C@@H]2C[C@H](F)CN2)C[C@@H]1C` [Compound 65, ((3S,4R,5R)-4-(2-fluoro-4-(3-fluoro-1H-pyrrolo[2,3-b]pyridin-4-yl)-6-methylphenyl)-4-hydroxy-3,5-dimethylpiperidin-1-yl)((2S,4S)-4-fluoropyrrolidin-2-yl)methanone], the half-maximal inhibitory concentration (IC50) at LATS2 was 3.2 nM; on LATS1, 8.7 nM; on AKT, 1180 nM.

With `Cc1cc(-c2ccnc3[nH]cc(F)c23)cc(F)c1[C@@]1(O)[C@H](C)CN(C(=O)[C@@H]2C[C@@H](F)CN2)C[C@@H]1C` [Compound 66, ((3S,4R,5R)-4-(2-fluoro-4-(3-fluoro-1H-pyrrolo[2,3-b]pyridin-4-yl)-6-methylphenyl)-4-hydroxy-3,5-dimethylpiperidin-1-yl)((2S,4R)-4-fluoropyrrolidin-2-yl)methanone], the concentration for half-maximal inhibition (IC50) on LATS2 was 3 nM; at LATS1, 13 nM; on AKT, 673 nM.

As for `CNCC(=O)N1C[C@@H](C)[C@](O)(c2c(C)cc(-c3ccnc4[nH]cc(F)c34)cc2F)[C@@H](C)C1` [Compound 67, 1-((3S,4s,5R)-4-(2-fluoro-4-(3-fluoro-1H-pyrrolo[2,3-b]pyridin-4-yl)-6-methylphenyl)-4-hydroxy-3,5-dimethylpiperidin-1-yl)-2-(methylamino) ethan-1-one], the IC50 on LATS2 worked out at 2.8 nM; at LATS1 it was 8.7 nM; at AKT, 577 nM.

A word on the IC50: it is the concentration that gives 50% inhibition.
